“And” between values parts separate entries of the source, which are not always exact repeats. Equal entries are not always repeated.
Tested on: J774.2 mouse macrophages
Assay: LPS-induced cytokine and chemokine levels in J774.2 mouse macrophage cell supernatant (ELISA)
Assay type: cell-based
Details: for CXCL1 % reduction / CXCL1 [pg/mL] Mean / CXCL2 % reduction / CXCL2 [pg/mL] Mean / MMP9 % reduction / MMP9 [pg/mL] Mean: J774.2 cells; for CXCL1 % reduction / CXCL1 [pg/mL] Mean / CXCL2 % reduction / CXCL2 [pg/mL] Mean / MMP9 % reduction / MMP9 [pg/mL] Mean / CCl2, % reduction / CCl2, Mean / GM-CSF % reduction / GM-CSF Mean / IL-1β % reduction / IL-1β Mean / IL-6 % reduction / IL-6 Mean / TNF-α % reduction / TNF-α Mean / CCl2 / CXCL1 / GM-CSF / IL-1β / IL-6 / TNF-α: LPS; for CCl2, % reduction / CCl2, Mean / GM-CSF % reduction / GM-CSF Mean / IL-1β % reduction / IL-1β Mean / IL-6 % reduction / IL-6 Mean / TNF-α % reduction / TNF-α Mean / CCl2 / CXCL1 / GM-CSF / IL-1β / IL-6 / TNF-α: J774.2 supernatant; for CCl2 / CXCL1 / GM-CSF / IL-1β / IL-6 / TNF-α: individual replicate

CC[C@H]1OC(=O)[C@H](C)[C@@H](O[C@H]2C[C@@](C)(OC)[C@@H](O)[C@H](C)O2)[C@H](C)[C@@H](O[C@@H]2O[C@H](C)C[C@H](N(C)C)[C@H]2O)[C@](C)(O)C[C@@H](C)CN(C)[C@H](C)[C@@H](O)[C@]1(C)O [Azithromycin]
CXCL1 % reduction (compound 0.03 µM): -14% | CXCL1 [pg/mL] Mean (compound 0.03 µM): 29 pg/mL | CXCL2 % reduction (compound 0.03 µM): 36% | CXCL2 [pg/mL] Mean (compound 0.03 µM): 20828 pg/mL | MMP9 % reduction (compound 0.03 µM): -31% | MMP9 [pg/mL] Mean (compound 0.03 µM): 1243 pg/mL | CXCL1 % reduction (compound 0.1 µM): -29% | CXCL1 [pg/mL] Mean (compound 0.1 µM): 33 pg/mL | CXCL2 % reduction (compound 0.1 µM): 38% | CXCL2 [pg/mL] Mean (compound 0.1 µM): 20316 pg/mL | MMP9 % reduction (compound 0.1 µM): -12% | MMP9 [pg/mL] Mean (compound 0.1 µM): 1072 pg/mL | CXCL1 % reduction (compound 0.3 µM): -11% | CXCL1 [pg/mL] Mean (compound 0.3 µM): 28 pg/mL | CXCL2 % reduction (compound 0.3 µM): 29% | CXCL2 [pg/mL] Mean (compound 0.3 µM): 23099 pg/mL | MMP9 % reduction (compound 0.3 µM): -7% | MMP9 [pg/mL] Mean (compound 0.3 µM): 1027 pg/mL | CXCL1 % reduction (compound 1 µM): -18% | CXCL1 [pg/mL] Mean (compound 1 µM): 30 pg/mL | CXCL2 % reduction (compound 1 µM): 13% | CXCL2 [pg/mL] Mean (compound 1 µM): 28283 pg/mL | MMP9 % reduction (compound 1 µM): -11% | CXCL1 % reduction (compound 3 µM): -30% | CXCL1 [pg/mL] Mean (compound 3 µM): 33 pg/mL | CXCL2 % reduction (compound 3 µM): 51% | CXCL2 [pg/mL] Mean (compound 3 µM): 15868 pg/mL | MMP9 % reduction (compound 3 µM): -14% | MMP9 [pg/mL] Mean (compound 3 µM): 1088 pg/mL | CXCL1 % reduction (compound 10 µM): -51% | CXCL1 [pg/mL] Mean (compound 10 µM): 39 pg/mL | CXCL2 % reduction (compound 10 µM): 45% | CXCL2 [pg/mL] Mean (compound 10 µM): 18014 pg/mL | MMP9 % reduction (compound 10 µM): 11% | MMP9 [pg/mL] Mean (compound 10 µM): 860 pg/mL | CXCL1 % reduction (compound 30 µM): -135% | CXCL1 [pg/mL] Mean (compound 30 µM): 60 pg/mL | CXCL2 % reduction (compound 30 µM): 26% | CXCL2 [pg/mL] Mean (compound 30 µM): 23980 pg/mL | MMP9 % reduction (compound 30 µM): 47% | MMP9 [pg/mL] Mean (compound 30 µM): 539 pg/mL | CXCL1 % reduction (compound 100 µM): -128% | CXCL1 [pg/mL] Mean (compound 100 µM): 58 pg/mL | CXCL2 % reduction (compound 100 µM): 35% | CXCL2 [pg/mL] Mean (compound 100 µM): 21270 pg/mL | MMP9 % reduction (compound 100 µM): 70% | MMP9 [pg/mL] Mean (compound 100 µM): 332 pg/mL | levels of the measured LPS-induced cytokines, chemokines, or MMP-9 in supernatants (J774.2 mouse macrophages, concentrations tested (0.03 to 10 μM shown)): little to no reduction | CCl2, % reduction (0.03 µM): 18% | CCl2, Mean (0.03 µM): 29824 pg/mL | GM-CSF % reduction (0.03 µM): 64% | GM-CSF Mean (0.03 µM): 507 pg/mL | IL-1β % reduction (0.03 µM): -40% | IL-1β Mean (0.03 µM): 266 pg/mL | IL-6 % reduction (0.03 µM): 9% | IL-6 Mean (0.03 µM): 70233 pg/mL | TNF-α % reduction (0.03 µM): -11% | TNF-α Mean (0.03 µM): 1517 pg/mL | CCl2 (0.03 µM): 28757.8 pg/mL and 30890.3 pg/mL | CXCL1 (0.03 µM): 31.2 pg/mL and 27.2 pg/mL | GM-CSF (0.03 µM): 560.6 pg/mL and 452.6 pg/mL | IL-1β (0.03 µM): 258.52 pg/mL and 274.336 pg/mL | IL-6 (0.03 µM): 75760 pg/mL and 64706 pg/mL | TNF-α (0.03 µM): 1559.1 pg/mL and 1475.0 pg/mL | CCl2, % reduction (0.1 µM): 25% | CCl2, Mean (0.1 µM): 27461 pg/mL | GM-CSF % reduction (0.1 µM): 56% | GM-CSF Mean (0.1 µM): 616 pg/mL | IL-1β % reduction (0.1 µM): -16% | IL-1β Mean (0.1 µM): 222 pg/mL | IL-6 % reduction (0.1 µM): -5% | IL-6 Mean (0.1 µM): 81359 pg/mL | TNF-α % reduction (0.1 µM): -22% | TNF-α Mean (0.1 µM): 1665 pg/mL | CCl2 (0.1 µM): 26336.9 pg/mL and 28584.6 pg/mL | CXCL1 (0.1 µM): 32.4 pg/mL and 33.7 pg/mL | GM-CSF (0.1 µM): 657.0 pg/mL and 575.0 pg/mL | IL-1β (0.1 µM): 219.952 pg/mL and 223.825 pg/mL | IL-6 (0.1 µM): 80523 pg/mL and 82194 pg/mL | TNF-α (0.1 µM): 1716.4 pg/mL and 1614.2 pg/mL | CCl2, % reduction (0.3 µM): 20% | CCl2, Mean (0.3 µM): 29163 pg/mL | GM-CSF % reduction (0.3 µM): 72% | GM-CSF Mean (0.3 µM): 397 pg/mL | IL-1β % reduction (0.3 µM): 9% | IL-1β Mean (0.3 µM): 173 pg/mL | IL-6 % reduction (0.3 µM): 8% | IL-6 Mean (0.3 µM): 71113 pg/mL | TNF-α % reduction (0.3 µM): -8% | TNF-α Mean (0.3 µM): 1475 pg/mL | CCl2 (0.3 µM): 28466.3 pg/mL and 29859.2 pg/mL | CXCL1 (0.3 µM): 27.1 pg/mL and 29.7 pg/mL | GM-CSF (0.3 µM): 346.8 pg/mL and 446.6 pg/mL | IL-1β (0.3 µM): 173.433 pg/mL and 172.638 pg/mL | IL-6 (0.3 µM): 72113 pg/mL and 70113 pg/mL | TNF-α (0.3 µM): 1462.3 pg/mL and 1488.2 pg/mL
